From patent US20060110456A1, “Method for biocidal and/or biostatic treatment and compositions therefor” (NATIONAL UNIVERSITY OF SINGAPORE, priority 2004, published 2006)
“Also recorded” adds a separate entry of the source. Counter-ions that a name gives are not always drawn. Like-named read-outs stand apart in the source and are kept apart here.

Experiments:
barnacle nauplii = assay: Toxicity of drugs under different light conditions and over time (stability in seawater); format: in vivo, Balanus amphitrite; settings: for Change in toxicity on ageing in seawater, 12L:12D condition: 12 h light and 12 h dark; for Effect of UV on drug toxicity to barnacle nauplii: UV for half an hour
Method: Preliminary experiments were carried out to examine the chemical stability of the drugs. 25 ug ml^−1 seawater suspensions of the drugs were prepared, in 3 replicates per condition, 3 replicate tubes containing 15 ml per test tube per prepared for each treatment type. The treatments consisted of: • i. Dark condition: tubes were wrapped in aluminium foil and kept in the dark at all times • ii. 12L:12D condition, where the tubes were subject incubated in a plant growth chamber with light regime of 12 hours light and 12 hours dark. • iii. UV treated tubes were subject to UV for half an hour. […] Sets (1) & (2) were tested at week 0, 1, 2 and after 4 weeks. “UV” set is only assayed after UV treatment. […] Effect of UV

Bugula neritina larvae = assay: Bioassay against bryozoan larvae; format: in vivo; settings: crude rank, best (1) to worst (8)
Method: Bugula neritina (Phylum Bryozoa, Class Gymnolaemata, Order Cheilostomatida) is a cosmopolitan species of bryozoan, commonly found in most marine fouling communities. The larvae are brooded in ovicells found on the stem of the colonies. When released, the larva will settle quickly on most surfaces, within a few minutes. At 24° C., the settled larvae forms the one-cell ancestrula, and after 48 hours, the lophophore has developed and extended for feeding.
Adult colonies of Bugula neritina were collected from fouling communities growing on the submerged pontoons on a floating fish farm located off Changi, Singapore. Adult animals were maintained in the open-circulation aquarium at St John's island marine laboratory, Singapore. The adults were kept in total darkness for 24 hours. On exposure to light, larvae were released after half an hour. […] Because the larvae will settle quickly, larvae were pipetted directly into test wells in 1 ml of seawater using a graduated glass pipette.
4 replicates were done for each treatment. After 24 hours, larvae were scored as settled, swimming or dead/deformed. The assay plates were usually kept for another 24 hours and checked again, to ascertain that the settled larvae had developed into viable colonies with lophophores. Two trials were repeated for each compound.
Bioassays were carried out using the method described above, in July 2003 during the peak spawning season for Bugula.

[1] = tested on: Balanus amphitrite stage II naupliar larvae
Method: Pharmaceuticals from the respective manufacturers were treated in the following way. A pill containing a known amount of active ingredient (as stated in product information) was ground in a mortar and pestle and a suspension of 2 mg ml^−1 generated in de-ionized water. This stock solution is stored at −20° C. in 4 ml amber screw cap vials. For the bioassays, 250 ul of stock solution is added to 10 ml of 1 um filtered seawater. This suspension was then sonicated for 10 minutes. Serial dilutions of this 50 μg ml^−1 seawater solution, or suspension, with seawater was done to generate the required range of concentrations.
Stage II naupliar larvae used in tests were obtained from Balanus amphitrite adults collected from inter-tidal rock walls at Kranji mangrove, Singapore. Larvae were collected from a container of adults by attraction to a point source of light and transferred to 500 ml of fresh seawater. Next, larvae were re-concentrated with a fiber optic light and added to assays.
Duplicate assays were conducted in 2 ml micro-centrifuge tubes (Axygen MCT-200-C) in 1.5 ml of filtered seawater for 22 to 24 hours. The assays were repeated for confirmation. There were four controls (vehicle only, 0 μg ml^−1), and 2 tubes of each for each test concentration. The assay was initiated by addition of barnacle nauplii in 50 to 100 μl of seawater.
After 22 to 24 hours of incubation at 25-27° C., solutions containing test animals were transferred to a Bogorov tray and scored as living or dead. Moribund larvae were scored as dead. Results were confirmed by repeating the assay. […] If data were not appropriate for probit analysis, the LC50 was estimated from graphed data.

[2] = tested on: hard fouling (barnacles, serpulids, spirorbids); assay: Field testing of coated rods; format: in vivo; design: Total hard fouling, difference in mean cover (%), drug vs control / Barnacles, difference in mean cover (%), drug vs control: tested at 25 µg/ml of coating; Serpulids, difference in mean cover (%), drug vs control: tested at 25 µg/ml of coating mix; settings: for Performance against barnacles / Performance against serpulid polychaetes / Effect of addition of drug on antifouling performance of VC50 coating (total hard fouling) / Performance against spirorbid polychaetes: in words; for Overall performance in field assay: crude rank, best (1) to worst (8); for Barnacles, difference in mean cover (%), drug vs VC50 / Serpulids, difference in mean cover (%), drug vs VC50 / Spirorbids, difference in mean cover (%), drug vs VC50 / Total hard fouling, difference in mean cover (%), drug vs VC50: drug + VC50 rods vs VC50 control; for Barnacles, difference in mean cover (%), drug vs control / Serpulids, difference in mean cover (%), drug vs control / Spirorbids, difference in mean cover (%), drug vs control / Total hard fouling, difference in mean cover (%), drug vs control: drug + VC50 rods vs uncoated blank control; for Reduction of total hard fouling cover compared to VC50 alone / Effect of addition of drug on antifouling performance of VC50 coating (total hard fouling): drug at 25 ug per ml of VC50 coating; for Barnacles Mean cover (%) / Serpulids Mean cover (%) / Spirorbids Mean cover (%) / Total hard fouling Mean cover (%): rods coated with drug + VC50, field test; for Total hard fouling Mean cover (%): percentage cover within 6 mm×50 mm transect
Method: Fouling on rods occurs more rapidly than on flat panels, enabling rapid assessment of the performance of coatings.
6 mm diameter glass rods were cut to 150 mm length and prepared prior to coating by baking in a furnace at 150° C. for 24 hours and then cooling in a dessicator.
All pharmaceuticals were obtained in commercially available form. All tablets were reduced to fine powder with a mortar and pestle, and capsules were opened to extract the contents. The amount of drug powder required to attain the desired concentrations for all tests was calculated from product dosage information and then measured by weight on a high-resolution electronic balance. This was added to the coating and mixed thoroughly prior to application to obtain the concentration of 25 ug active ingredient per ml of coating mix.
The commercial antifouling product used to benchmark field experiments was VC Offshore with Teflon® manufactured by International Coatings.
For our experiments, a reduced copper coating (“VC50”) was prepared by mixing approximately 20 g of #YBA779 into 100 ml of #YBA707. The prepared coating was then allowed to stand so that bubbles from the mixing process dissipated. 15 ml centrifuge tubes were filled with 10 mls of prepared coating. Prepared glass rods were then immersed in the coating to a height of 100 mm and then suspended on a frame to air dry until coating cured.
Five replicate rods were tested for every experimental treatment, including controls. Two sets of controls were used, an uncoated blank control and a VC50 control without pharmaceutical additives. Rod were randomly arrayed on plastic vexar mesh attached to PVC frames and suspended at a depth of 10 cm from the water surface. […] Rods were examined visually weekly for the duration of testing, which typically lasts between 6 to 10 weeks. All fouling was scored as percentage cover of each category within a 6 mm×50 mm transect on each rod.

[3] = barnacle nauplii, 22 to 24 hours, concentration that caused 50% mortality
[4] = 25 ug ml^−1 seawater suspension, after 4 weeks
[5] = coated rods, 25 ug active ingredient per ml of VC50 coating
[6] = 25 ug ml^−1 seawater suspension

Structure (SMILES) | Prevention of settlement of Bugula larvae (Bugula neritina larvae) | LD50 [1, 3] | Toxicity to barnacle nauplii and cyprids ([1]; in vivo) | Performance against barnacles ([2]; coated rods) | Performance against serpulid polychaetes ([2]; coated rods) | Overall performance in field assay [2] | Barnacles, difference in mean cover (%), drug vs VC50 [2] | Serpulids, difference in mean cover (%), drug vs VC50 [2] | Spirorbids, difference in mean cover (%), drug vs VC50 [2] | Total hard fouling, difference in mean cover (%), drug vs VC50 [2] | Barnacles, difference in mean cover (%), drug vs control [2] | Serpulids, difference in mean cover (%), drug vs control [2] | Spirorbids, difference in mean cover (%), drug vs control [2] | Total hard fouling, difference in mean cover (%), drug vs control [2] | Reduction of total hard fouling cover compared to VC50 alone [2] | Barnacles Mean cover (%) [2] | Serpulids Mean cover (%) [2] | Spirorbids Mean cover (%) [2] | Total hard fouling Mean cover (%) [2] | Change in toxicity on ageing in seawater, 12L:12D condition (barnacle nauplii; [4]) | further results
CN1CCN(C(c2ccccc2)c2ccccc2)CC1 [CYZ, Cyclizine hydrochloride] | 5 | 61.05 ng/mL | toxic to barnacle nauplii and cyprids | significantly lower than both blank and VC50 controls | significantly enhanced the performance of VC50 against serpulid polychaetes | 5 | −13% | −1.67% | −5% | −19.7% | −77.34% | −6.67% | +6% | −78.0% | 47.2% | 10.33% | 0% | 11.67% | 22.0% | – | Stability under UV and in seawater (barnacle nauplii; other studies carried out by the group): does not breakdown under UV and remains stable after four months in seawater; Effect of addition of drug on antifouling performance of VC50 coating (total hard fouling) ([2]; hydrochloride): marginally increased the performance of VC50 coating; also recorded: significantly improved the performance of VC50 coating
CCCCCCCCCC(=O)OC1(c2ccc(Cl)cc2)CCN(CCCC(=O)c2ccc(F)cc2)CC1 [HDL, haloperidol decanoate] | 4 | – | toxic to barnacle nauplii and cyprids | did not significantly reduce barnacle cover compared to VC50 controls | completely excluded | 4 | −6.7% | −1.67% | −16.66% | −25% | −69.7% | −3.33% | +5% | −68% | – | 23.3% | 0% | 6.67% | 30% | increased in toxicity | LD50 ([1]; Balanus amphitrite, in vivo): 252.68 ng/mL; Total hard fouling, mean cover [2, 5]: 30%; Performance against spirorbid polychaetes ([2]; coated rods): exclude spirorbid settlement; also recorded: significantly improve the performance of VC50 against spirorbid polychaetes; Effect of addition of drug on antifouling performance of VC50 coating (total hard fouling) [2]: significantly less on VC50+HDL treated rods; also recorded: significantly improved the performance of VC50 coating
CN(C)C(=O)C(CCN1CCC(O)(c2ccc(Cl)cc2)CC1)(c1ccccc1)c1ccccc1 [IMD, Loperamide hydrochloride] | 7 | 241.34 ng/mL | – | significantly less than on both controls | – | 1 | – | – | – | – | – | – | – | – | 54.3% | – | – | – | – | – | Reduction of total hard fouling cover compared to blank controls ([2]; coated rods): 97.3%; Barnacles, mean cover [2, 5]: 0.67%; Serpulids, mean cover [2, 5]: 0%; Spirorbids, mean cover [2, 5]: 0%; Total hard fouling, mean cover [2, 5]: 0.67%; Performance against spirorbid polychaetes ([2]; coated rods, hydrochloride): exclude spirorbid settlement; also recorded: no settlement by spirorbids; Effect of addition of drug on antifouling performance of VC50 coating (total hard fouling) ([2]; hydrochloride): significantly increased the fouling resistance of the base coating; also recorded: significantly improved the performance of VC50 coating; Barnacles, difference in mean cover vs VC50 ([2]; vs VC50 control): −29.3%; Serpulids, difference in mean cover vs VC50 ([2]; vs VC50 control): −1.67%; Spirorbids, difference in mean cover vs VC50 ([2]; vs VC50 control): −23.33%; Total hard fouling, difference in mean cover vs VC50 ([2]; vs VC50 control): −54.3%; Barnacles, difference in mean cover vs control ([2]; vs uncoated blank control): −92.3%; Serpulids, difference in mean cover vs control ([2]; vs uncoated blank control): −3.33%; Spirorbids, difference in mean cover vs control ([2]; vs uncoated blank control): −1.67%; Total hard fouling, difference in mean cover vs control ([2]; vs uncoated blank control): −97.3%
CN1CCN(CCCN2c3ccccc3Sc3ccc(C(F)(F)F)cc32)CC1 [TFZ, Trifluoperazine hydrochloride] | 2 | 9.35 ng/mL | very toxic to nauplii and cyprids | – | – | – | – | – | – | – | – | – | – | – | – | – | – | – | – | marked decrease in toxicity | Effect of UV on drug toxicity to barnacle nauplii (barnacle nauplii; [6]): some increase in toxicity; Change in toxicity on ageing in seawater, dark condition (barnacle nauplii; [4]): appreciable decrease in toxicity
CNCCC(Oc1ccc(C(F)(F)F)cc1)c1ccccc1 (stereo not drawn) [PZC, fluoxetine hydrochloride] | 3 | – | – | – | – | 6 | −14% | −1.67% | −7.67% | −23.37% | −78.34% | −6.67% | +3.33% | −81.67% | ~24% | 9.33% | 0% | 9% | 18.33% | did not show an appreciable change | Effect of UV on drug toxicity to barnacle nauplii (barnacle nauplii; [6]): some increase in toxicity; Effect of addition of drug on antifouling performance of VC50 coating (total hard fouling) [2]: did not significantly improve antifouling performance
